Source: ChEMBL document CHEMBL1201862, “PubChem BioAssay data set” (2004)
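A five-concentration, 48-hour dose response in 96-well plates underlies each endpoint, interpolated linearly between surrounding concentrations. GI50 = concentration required for 50% inhibition of growth.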 Calls of active or inactive are those of the source. No stated cut-off is given here; in the data, active = GI50 up to about 1.1 µM and inactive = higher.

Experiments:
Assay in all cases: NCI anticancer screen, dose series, 48 h
DLD-1 = test system: DLD-1
DMS-273 = test system: DMS-273
HOP-18 = test system: HOP-18
KM-20L2 = test system: KM-20L2
LXFL 529 = test system: LXFL 529
M19-MEL = test system: M19-MEL
RXF 631 = test system: RXF 631
SNB-78 = test system: SNB-78
XF498 = test system: XF498

Structure (SMILES)	GI50 (DLD-1)	GI50 (DMS-273)	GI50 (HOP-18)	GI50 (KM-20L2)	GI50 (LXFL 529)	GI50 (M19-MEL)	GI50 (RXF 631)	GI50 (SNB-78)	GI50 (XF498)
Cc1cccc2c1c1ccc3c(c1n2C)C(=O)C=CC3=O	2.28 µM (inactive)	3.11 µM (inactive)	10 µM (inactive)	16.2 µM (inactive)	2.01 µM (inactive)	5.33 µM (inactive)	6.79 µM (inactive)	16.2 µM (inactive)	–
CC1(C)C=C(N2CCN(C3=CC(C)(C)NC(C)(C)C3)CC2)CC(C)(C)N1	> 100 µM (inactive)	> 100 µM (inactive)	> 100 µM (inactive)	> 100 µM (inactive)	> 100 µM (inactive)	> 100 µM (inactive)	–	> 100 µM (inactive)	> 100 µM (inactive)
COc1ccc2c(c1)[n+]([O-])c(C(=O)CC(=O)C(=O)Nc1cccc(C)c1C)c(C)[n+]2[O-]	> 100 µM (inactive)	–	> 100 µM (inactive)	> 100 µM (inactive)	> 100 µM (inactive)	> 100 µM (inactive)	> 100 µM (inactive)	> 100 µM (inactive)	> 100 µM (inactive)
CCOC(=O)CCC(=O)C1c2cccc(O)c2C(=O)c2c(O)cc(C)cc21 (centres undefined)	1.21 µM (inactive)	0.785 µM (active)	0.515 µM (active)	1.83 µM (inactive)	0.643 µM (active)	0.637 µM (active)	0.771 µM (active)	0.542 µM (active)	0.211 µM (active)
CC(=O)CC(=O)Nc1ccc(OS(N)(=O)=O)cc1	> 100 µM (inactive)	> 100 µM (inactive)	> 100 µM (inactive)	> 100 µM (inactive)	> 100 µM (inactive)	> 100 µM (inactive)	> 100 µM (inactive)	> 100 µM (inactive)	> 100 µM (inactive)
CCOC(=O)COc1ccccc1/C=C1\CCC(CN(C)C)C1=O (centres undefined)	3.99 µM (inactive)	2.91 µM (inactive)	23.2 µM (inactive)	11.6 µM (inactive)	2.45 µM (inactive)	3.18 µM (inactive)	17.9 µM (inactive)	21.2 µM (inactive)	–
Cc1ccc(N2C(=O)/C(=C3\Sc4c(nc(C)n(C)c4=O)N3c3ccccc3)SC2=S)cc1	–	25.2 µM (inactive)	–	> 100 µM (inactive)	68.7 µM (inactive)	> 100 µM (inactive)	–	40.8 µM (inactive)	> 100 µM (inactive)
CC1COC(C)(C)P(=O)(c2ccccc2)C1 (centres undefined)	> 100 µM (inactive)	> 100 µM (inactive)	> 100 µM (inactive)	> 100 µM (inactive)	> 100 µM (inactive)	> 100 µM (inactive)	–	> 100 µM (inactive)	> 100 µM (inactive)
C[C@]12CC[C@H](O)CC1=CC[C@@H]1C2CC[C@]2(C)C(=O)NC(=O)CC12 (some centres undefined)	44.6 µM (inactive)	56.9 µM (inactive)	> 100 µM (inactive)	> 100 µM (inactive)	74.3 µM (inactive)	> 100 µM (inactive)	76.7 µM (inactive)	> 100 µM (inactive)	> 100 µM (inactive)
C=C(c1ccccc1)[C@@]1(O)CCCC[C@H]1NC(c1ccccc1)c1ccccc1	14.6 µM (inactive)	13.1 µM (inactive)	19.9 µM (inactive)	13.8 µM (inactive)	11.1 µM (inactive)	15 µM (inactive)	–	19.7 µM (inactive)	–
CCOC(=O)/C(=C\c1ccc(OCc2ccccc2)c(OC)c1)C(=O)c1ccccc1	–	–	–	19.5 µM (inactive)	–	22.1 µM (inactive)	–	31.3 µM (inactive)	18.1 µM (inactive)
